Legend:
[1] = Dermal PK, miniature pig; assay type: in vivo, Bama miniature pig; conditions: for Exposure in plasma: topical
Experimental: Similar procedures were carried out for dermal PK of female SD rats and female Bama miniature pigs. Briefly, each area of topical application was 4 cm × 9 cm for SD rats and 6 cm × 6 cm for miniature pigs. After decontamination, the biopsy sections of SD rats were tape stripped for five times and those of miniature pig for twenty-five times, respectively. Blood and dorsal skin tissues of the animals were collected and analyzed for the compounds via LC/MS. The experimental protocol used in this study was approved by the Institutional Animal Care and Use Committees (IACUC). The experiments were conducted in accordance with the Guiding Principles for the Care and Use of Laboratory Animals and complied with the ARRIVE guidelines.

[2] = test system: GABAA; assay: SAFETYscan47 Ion Channel; assay type: cell-based; conditions: 3 µM
Experimental: (§1) To further profile any off-target activity, we counter-screened SHR168442 in SAFETYscan47 panel, compiled by DiscoverX based on the recommendation by major pharmaceutical companies. SHR168442 was screened at 3 µM in duplicates.

[3] = biological target: T1, hERG (Homo sapiens, UniProt Q12809); assay: SAFETYscan47 Ion Channel; assay type: cell-based; conditions: Blocker; 3 µM
T1 construct: purchased DiscoverX (Eurofins) SAFETYscan47
Experimental: as §1

T1 sequence (Q12809 whole entry): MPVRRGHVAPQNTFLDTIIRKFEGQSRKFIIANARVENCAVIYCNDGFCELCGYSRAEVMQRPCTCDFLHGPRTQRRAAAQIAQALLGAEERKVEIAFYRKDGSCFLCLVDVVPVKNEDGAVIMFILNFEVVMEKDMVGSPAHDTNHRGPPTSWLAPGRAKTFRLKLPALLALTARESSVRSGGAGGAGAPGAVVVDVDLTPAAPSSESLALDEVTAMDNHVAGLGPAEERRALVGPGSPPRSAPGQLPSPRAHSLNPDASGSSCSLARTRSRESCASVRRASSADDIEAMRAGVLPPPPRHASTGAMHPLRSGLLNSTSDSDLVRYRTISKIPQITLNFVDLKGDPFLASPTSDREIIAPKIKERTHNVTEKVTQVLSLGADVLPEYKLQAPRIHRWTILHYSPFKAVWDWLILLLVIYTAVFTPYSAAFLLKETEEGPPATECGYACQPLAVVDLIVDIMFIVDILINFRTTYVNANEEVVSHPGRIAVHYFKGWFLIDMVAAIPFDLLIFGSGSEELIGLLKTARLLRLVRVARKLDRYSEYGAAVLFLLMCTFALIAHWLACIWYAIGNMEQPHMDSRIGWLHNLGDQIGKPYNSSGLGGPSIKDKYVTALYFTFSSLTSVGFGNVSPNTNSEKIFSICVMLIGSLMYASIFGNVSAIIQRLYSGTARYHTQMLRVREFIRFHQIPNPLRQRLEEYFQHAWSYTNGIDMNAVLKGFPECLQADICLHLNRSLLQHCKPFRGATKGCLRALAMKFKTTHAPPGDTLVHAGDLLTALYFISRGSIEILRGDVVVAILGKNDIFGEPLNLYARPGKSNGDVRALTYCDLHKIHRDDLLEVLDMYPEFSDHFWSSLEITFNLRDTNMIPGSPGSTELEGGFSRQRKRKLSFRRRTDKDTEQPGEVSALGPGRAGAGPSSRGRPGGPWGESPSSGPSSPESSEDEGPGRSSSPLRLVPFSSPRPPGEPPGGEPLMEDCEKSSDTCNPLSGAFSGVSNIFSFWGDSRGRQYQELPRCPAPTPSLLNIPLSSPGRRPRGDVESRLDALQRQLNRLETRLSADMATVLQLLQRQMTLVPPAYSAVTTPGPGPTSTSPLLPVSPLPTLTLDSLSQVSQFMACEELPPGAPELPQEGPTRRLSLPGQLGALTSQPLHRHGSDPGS

Q: Which results are given for `CCS(=O)(=O)c1ccc([C@H](CCO)c2nc3c(Cl)c(N4CCC(F)(F)CC4)c(Cl)cc3[nH]2)cc1` [SHR168442, (S)-3-(4,6-dichloro-5-(4,4-difluoropiperidin-1-yl)-1H-benzo[d]imidazol-2-yl)-3-(4-(ethylsulfonyl)phenyl)propan-1-ol]?
A: Exposure in plasma ([1]; 2% in Vaseline, 3 h): blq (below limit of quantitation (< 6 ng/mL)); Exposure in plasma ([1]; 2% in Vaseline, 6 h): blq (below limit of quantitation (< 6 ng/mL)); Exposure in plasma ([1]; 2% in Vaseline, 24 h): blq (below limit of quantitation (< 6 ng/mL)); Exposure in plasma ([1]; 8% in Vaseline, 3 h): blq (below limit of quantitation (< 6 ng/mL)); Exposure in plasma ([1]; 8% in Vaseline, 6 h): blq (below limit of quantitation (< 6 ng/mL)); Exposure in plasma ([1]; 8% in Vaseline, 24 h): blq (below limit of quantitation (< 6 ng/mL)); systemic exposures in miniature pigs ([1]; female, Bama, pig, in vivo): < 6 ng/mL; % Response Average ([2]; Blocker): 7.4%; % Response Replicate 1 ([2]; Blocker): 4.6%; % Response Replicate 2 ([2]; Blocker): 10.1%; % Response Average ([2]; Opener): 2.5%; % Response Replicate 1 ([2]; Opener): 3.2%; % Response Replicate 2 ([2]; Opener): 1.9%; % Response Average [3]: 4.9%; % Response Replicate 1 [3]: 6.5%; % Response Replicate 2 [3]: 3.2%
